Source: the NIST ThermoML archive (doi:10.1016/j.jct.2013.12.025)

Test: refractive index (Na D-line) (dimensionless); xn = mol fraction of the nth substance listed
Conditions: 101 kPa, Liquid, Standard Abbe refractometry

C=C[Si](C)(C)O[Si](C)(C)C=C [1,3-diethenyl-1,1,3,3-tetramethyldisiloxane] + Clc1ccccc1
refractive index
Conditions	283.15 K	288.15 K	293.15 K	298.15 K	303.15 K
x1 = 0.05	1.51909	1.51642	1.51366	1.51088	1.50802
x1 = 0.0998	1.50933	1.5066	1.50385	1.50103	1.49821
x1 = 0.15	1.50029	1.49759	1.49487	1.492	1.48923
x1 = 0.1996	1.49216	1.48946	1.48671	1.48389	1.48103
x1 = 0.25	1.4846	1.48187	1.47913	1.47637	1.47349
x1 = 0.2999	1.47766	1.47495	1.47223	1.46943	1.46663
x1 = 0.35	1.47122	1.46854	1.46582	1.46303	1.46019
x1 = 0.3999	1.46527	1.46262	1.4599	1.45712	1.45432
x1 = 0.4496	1.45981	1.45712	1.45441	1.45167	1.44883
x1 = 0.4999	1.45464	1.45197	1.44926	1.4465	1.4437
x1 = 0.5499	1.44985	1.44716	1.44446	1.4417	1.43891
x1 = 0.6	1.44533	1.44268	1.43999	1.43722	1.43446
x1 = 0.6469	1.44138	1.4387	1.43603	1.43329	1.43053
x1 = 0.6998	1.43721	1.43455	1.43185	1.42911	1.42638
x1 = 0.7499	1.43345	1.4308	1.42812	1.42542	1.4227
x1 = 0.7997	1.42994	1.42729	1.42463	1.42193	1.41923
x1 = 0.8499	1.42661	1.42395	1.42129	1.41862	1.41593
x1 = 0.8996	1.4235	1.42083	1.41817	1.4155	1.41283
x1 = 0.9497	1.4205	1.41785	1.4152	1.41257	1.40991
x1 = 1	1.41767	1.415	1.41237	1.40973	1.40708
